# From ChEMBL document CHEMBL1201862, “PubChem BioAssay data set” (2004)
#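 Growth conditions: 96-well plates. Treatment: test compound, 48 hours, 5 concentrations. Analysis: linear interpolation between bracketing concentrations; unreached endpoints set to highest concentration. GI50 marks 50% less growth.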 Calls of active or inactive are those of the source. No stated cut-off is given here; in the data, active = GI50 up to about 1.1 µM and inactive = higher.
# Key:
# Test in all cases: NCI anticancer screen, dose series, 48 h
# TK-10 = system: TK-10
# SF-268 = system: SF-268
# HCT-116 = system: HCT-116
# OVCAR-5 = system: OVCAR-5
# 786-0 = system: 786-0
# CCRF-CEM = system: CCRF-CEM
# SNB-75 = system: SNB-75
# SF-295 = system: SF-295
# U-251 = system: U-251
# COLO 205 = system: COLO 205
# HCT-15 = system: HCT-15
# A498 = system: A498
# OVCAR-8 = system: OVCAR-8
# NCI-H522 = system: NCI-H522
# SF-539 = system: SF-539
# LOX IMVI = system: LOX IMVI
# ACHN = system: ACHN
# HOP-62 = system: HOP-62
# SR = system: SR
Structure (SMILES),GI50 (TK-10),GI50 (SF-268),GI50 (HCT-116),GI50 (OVCAR-5),GI50 (786-0),GI50 (CCRF-CEM),GI50 (SNB-75),GI50 (SF-295),GI50 (U-251),GI50 (COLO 205),GI50 (HCT-15),GI50 (A498),GI50 (OVCAR-8),GI50 (NCI-H522),GI50 (SF-539),GI50 (LOX IMVI),GI50 (ACHN),GI50 (HOP-62),GI50 (SR)
COc1cc(C(=O)C/C(CCC(=O)Nc2ccc(Cl)cc2Cl)=N/NC(=O)C(=O)NN)ccc1O,> 100 µM (inactive),> 100 µM (inactive),> 100 µM (inactive),> 100 µM (inactive),> 100 µM (inactive),> 100 µM (inactive),> 100 µM (inactive),> 100 µM (inactive),> 100 µM (inactive),> 100 µM (inactive),> 100 µM,> 100 µM (inactive),> 100 µM (inactive),> 100 µM (inactive),> 100 µM (inactive),43.3 µM (inactive),> 100 µM (inactive),> 100 µM (inactive),
COc1ccccc1NC(=O)/C(=C/c1ccccc1)C(C)=O,44.9 µM (inactive),38.4 µM (inactive),43.3 µM (inactive),> 100 µM (inactive),35.1 µM (inactive),29.6 µM (inactive),,27.5 µM (inactive),4.47 µM (inactive),,37.2 µM,,37.4 µM (inactive),25.5 µM (inactive),23.6 µM (inactive),37.2 µM (inactive),41.5 µM (inactive),59.4 µM (inactive),36.6 µM (inactive)
COc1ccc(CCCC(=O)O)c(C)c1,81.8 µM (inactive),27.4 µM (inactive),> 100 µM (inactive),> 100 µM (inactive),30.1 µM (inactive),17.2 µM (inactive),,38.8 µM (inactive),20.8 µM (inactive),,> 100 µM,14.3 µM (inactive),74.6 µM (inactive),36.8 µM (inactive),,30.1 µM (inactive),35.1 µM (inactive),26.4 µM (inactive),9.48 µM (inactive)
CCCCc1c2c(nc3c1CCc1cc4cc5c(nc4nc1-3)-c1nc3c(c(CCCC)c1CC5)CCC/C3=C\c1ccccc1)/C(=C/c1ccccc1)CCC2,> 100 µM (inactive),> 100 µM (inactive),> 100 µM (inactive),,> 100 µM (inactive),> 100 µM (inactive),> 100 µM (inactive),> 100 µM (inactive),> 100 µM (inactive),> 100 µM (inactive),> 100 µM,,> 100 µM (inactive),> 100 µM (inactive),> 100 µM (inactive),> 100 µM (inactive),> 100 µM (inactive),> 100 µM (inactive),> 100 µM (inactive)
COc1nc2[nH]ccc2c(=O)[nH]1,> 100 µM (inactive),> 100 µM (inactive),> 100 µM (inactive),> 100 µM (inactive),,> 100 µM (inactive),> 100 µM (inactive),> 100 µM (inactive),> 100 µM (inactive),> 100 µM (inactive),,> 100 µM (inactive),> 100 µM (inactive),,> 100 µM (inactive),> 100 µM (inactive),> 100 µM (inactive),,> 100 µM (inactive)
CCOC(=O)COc1cccc2occc(=O)c12,> 100 µM (inactive),> 100 µM (inactive),> 100 µM (inactive),> 100 µM (inactive),> 100 µM (inactive),> 100 µM (inactive),,> 100 µM (inactive),> 100 µM (inactive),> 100 µM (inactive),> 100 µM,> 100 µM (inactive),> 100 µM (inactive),> 100 µM (inactive),> 100 µM (inactive),> 100 µM (inactive),> 100 µM (inactive),> 100 µM (inactive),
